This note sets out measurements from patent US20130172246A1, “INSULIN GLARGINE VERSUS METFORMIN FOR THE FIRST-LINE TREATMENT OF EARLY TYPE-2 DIABETES” (priority 2011, published 2013).

This data set has as its system type 2 diabetes patients. Description: Continuous glucose monitoring (CGM) with standardized test meal, clinical trial insulin glargine vs. metformin. Type of data set: in vivo, human. Also noted: AUC 2hpp value after a test meal - Visit 1 / AUC 2hpp value after a test meal - Visit 8 / AUC day 2 - visit 8 / AUC day 2 - change / AUC day 3 - visit 8 / AUC day 3 - change / AUC 2 h incremental after TM - visit 8 / AUC 2 h incremental after TM - change / AUC between 5.6 and fasting on day 2 - visit 8 / AUC between 5.6 and fasting on day 2 - change / AUC between 5.6 and fasting on day 3 - visit 8 / AUC between 5.6 and fasting on day 3 - change / AUC 2 h after test meal - visit 8 / AUC 2 h after test meal change: unit not given beside the values. The settings on record: for Glycemic load - visit 8: (FG+Peak+2hppG)·⅓; for Glycemic load - visit 8 / MAGE - visit 8 / AUC day 2 - change / AUC day 2 - visit 8 / AUC day 3 - change / AUC day 3 - visit 8 / AUC between 5.6 and fasting on day 2 - change / AUC between 5.6 and fasting on day 3 - change / AUC 2 h after test meal change / AUC 2 h incremental after TM - change / Glycemic load - change / MAGE - change / AUC 2 h after test meal - visit 8 / AUC between 5.6 and fasting on day 2 - visit 8 / AUC between 5.6 and fasting on day 3 - visit 8 / AUC 2 h incremental after TM - visit 8: per protocol; for Glycemic load - visit 8 / MAGE - visit 8 / AUC day 2 - visit 8 / AUC day 3 - visit 8 / AUC 2 h after test meal - visit 8 / AUC between 5.6 and fasting on day 2 - visit 8 / AUC between 5.6 and fasting on day 3 - visit 8 / AUC 2 h incremental after TM - visit 8: week 36; for Glycemic load - visit 8 / AUC 2hpp value after a test meal - Visit 1 / MAGE - visit 8 / AUC 2 h after test meal change / AUC 2 h incremental after TM - change / Glycemic load - change / MAGE - change / AUC 2 h incremental after TM - visit 8 / AUC 2hpp value after a test meal - Visit 8: mean (SD); for fall of the total area under the curve (AUC-IG): CGM, p=0.04; for fall of the total area under the curve (AUC-IG) / decrease in the interstitial glucose level during CGM (Δ): start to end of study; for AUC 2hpp value after a test meal - Visit 1: baseline (week 0) before treatment; for MAGE - visit 8: mean amplitude of glycemic excursions; for AUC day 2 - change / AUC day 2 - visit 8: CGM day 2; for AUC day 2 - change / AUC day 3 - change / AUC between 5.6 and fasting on day 2 - change / AUC between 5.6 and fasting on day 3 - change / AUC 2 h after test meal change / AUC 2 h incremental after TM - change / Glycemic load - change / MAGE - change: change visit 1 to visit 8; for AUC day 2 - change / AUC day 2 - visit 8 / AUC day 3 - change / AUC day 3 - visit 8 / AUC between 5.6 and fasting on day 2 - change / AUC between 5.6 and fasting on day 3 - change / AUC 2 h after test meal - visit 8 / AUC between 5.6 and fasting on day 2 - visit 8 / AUC between 5.6 and fasting on day 3 - visit 8: mean; for AUC day 3 - change / AUC day 3 - visit 8: CGM day 3; for decrease in the interstitial glucose level during CGM (Δ): GLA vs. MET p=0.02; for AUC 2hpp value after a test meal - Visit 8: week 36 of treatment. The protocol:
The primary target variable determined was the Area Under the Curve (AUC) in mmol/L/time in subcutaneous abdominal fat after a test meal (TM) in a 2-hour course, which was determined by continuous blood glucose monitoring. The test meal was administered on the 2nd day of the CGM as breakfast. • AUC [mmol/L/time] 2 h pp
CGMS: The system used for continuous glucose monitoring is the CGMS from Medtronic, CGMS® System Gold™ monitor/MiniMed glucose subcutaneous sensor. The system is authorized for continuous glucose monitoring over a period of 72 h. The measurement sensor is inserted into subcutaneous fat tissue with the aid of an applicator. The entire sensor is stuck on the skin using a plaster. This is followed by the calibration of the device for approximately 5 hours, during which the subcutaneous levels are synchronized with the capillary blood glucose levels. Over the course of 72 h, further calibrations are required, as recommended by the manufacturer. The measured data of the sensor are transmitted by means of radio frequency to the CGMS® System Gold™ monitor, which is worn on the belt for example. After completion of the measurement period, the sensor is removed and the data of the monitor are evaluated on the computer using the software. For the evaluation, only the measured data of the first 48 hours are used, since the accuracy of measurement decreases over the course of the third day.
Test meal: On the morning of the 2nd day of the CGM, there is a standardized test meal in the trial center. This test meal (TM) consists of 95 g of whole-wheat bread, 20 g of margarine, 25 g of fruit preserves, 25 g of cheese, 200 ml of orange juice, 200 ml of milk mix with banana, strawberry or cocoa with a total of 560 Kcal. Blood is taken from the patient prior to the TM (after night-time fasting period of at least 8 hours). Subsequently, the TM should be eaten within 15 min. From the 1st bite, the time is measured, and after 2 h have elapsed, a 2nd blood collection is performed. During the TM and during the two hours thereafter, the patient should move as little as possible so as not to falsify the monitoring.
The primary target variable is the AUC (BG) TM of the glucose concentration in subcutaneous abdominal fat after a standardized test meal over a period of 2 hours. The AUC is calculated accordina to the trapezoidal rule.
• Mean HbA1c, • Glycemic variability: • Standard deviation (SD) of the mean glucose concentration over 24 h (day 2), • MAGE—mean amplitude of glycemic excursion calculated as the mean from the glucose increases>1 SD of the mean glucose concentration over the course of 24 h • Glycemic load calculated by (FG+Peak+2hppG)·⅓ • Mean of C-peptide and intact proinsulin (fasting and 2 h pp) • Mean free fatty acids • Biomarkers of subclinical inflammation (hsCRP, PAI-1, leukocyte count fasting and 2 h postprandial) • Microalbuminuria (albumin/creatinine ratio) • Endothelial function at ball of thumb using laser Doppler (O2C) • Hypoglycemic intervals (time<3 mmol glucose) during CGM over 48 hours (day 2+3 after TM)
In the study in the previous examples, 75 patients (45 men, 30 women, mean age: 60.7±9.2 years) were examined, whose first diagnosis of type 2 diabetes dated back to less than 5 years and whose HbA1c level was between 6.5 and 8.5%. The patients were treated with either metformin (MET, 1000 mg b.i.d. (n=3)) or insulin glargine (GLA) q.d. just before bedtime (n=3). The insulin dose was adjusted for a target plasma glucose concentration (FPG) of ≦5.6 mmol/L according to a standardized titration algorithm. At the start and end of the study, the HbA1c level and the plasma glucose, proinsulin and C-peptide concentrations were determined. […] All the patients received a standardized test meal on the second day of the continuous glucose monitoring for comparison of the interindividual postprandial (pp) glucose excursions.

On to Insulin glargine, for which the “Glycemic load - visit 8” value is reported as 8.8 (1.6), the “fall of the total area under the curve (AUC-IG)” value was determined as 671.2 ± 507.9 mmol·min/L, the “AUC 2hpp value after a test meal - Visit 1” value was 287.38 (67.235) and the “MAGE - visit 8” value was 8.0 (2.3). Further, the “AUC day 2 - change” value is −671.2, the “AUC day 2 - visit 8” value is recorded as 2000.3, the “AUC day 3 - change” value was −628.2 and the “AUC day 3 - visit 8” value amounted to 2045.0. Further, the “AUC between 5.6 and fasting on day 2 - change” value is −565.4; the “AUC between 5.6 and fasting on day 3 - change” value is −571.5; the “AUC 2 h after test meal change” value is given as −63.0 (5.4); the “AUC 2 h incremental after TM - change” value is recorded as −5.7 (40.4). In addition, the “Glycemic load - change” value is given as −2.7 (1.9); the MAGE - change is given as −0.4 (3.4); the “AUC 2 h after test meal - visit 8” value was 224.4; the “AUC between 5.6 and fasting on day 2 - visit 8” value is −58.5. The “AUC between 5.6 and fasting on day 3 - visit 8” value was −11.6; the “AUC 2 h incremental after TM - visit 8” value is 68.3 (24.6); the “decrease in the interstitial glucose level during CGM (Δ)” value was determined as 2.4 ± 1.8 mmol/L; the “AUC 2hpp value after a test meal - Visit 8” value was 224.38 (40.048). Also, the “postprandial plasma glucose two hours after a test meal and differences in AUC-IG after the test meal” value (GLA vs. MET) was “showed no significance”.

Turning to `CN(C)C(=N)N=C(N)N` [Metformin], the “Glycemic load - visit 8” value was 8.5 (2.1), the “fall of the total area under the curve (AUC-IG)” value worked out at 416.1 ± 537.6 mmol·min/L, the “AUC 2hpp value after a test meal - Visit 1” value was 256.50 (72.837) and the “MAGE - visit 8” value is 6.3 (2.4). In addition, the “AUC day 2 - change” value was −416.1, the “AUC day 2 - visit 8” value came to 1978.5, the “AUC day 3 - change” value is −411.5 and the “AUC day 3 - visit 8” value is given as 1972.5. The “AUC between 5.6 and fasting on day 2 - change” value was −356.5; the “AUC between 5.6 and fasting on day 3 - change” value was −317.4; the “AUC 2 h after test meal change” value is reported as −42.9 (73.1); the “AUC 2 h incremental after TM - change” value is listed as −5.8 (31.8). In addition, the “Glycemic load - change” value is listed as −1.7 (2.7); the MAGE - change is recorded as −0.8 (3.3); the “AUC 2 h after test meal - visit 8” value came out at 213.6; the “AUC between 5.6 and fasting on day 2 - visit 8” value was −15.4. In addition, the “AUC between 5.6 and fasting on day 3 - visit 8” value amounted to 41.1; the “AUC 2 h incremental after TM - visit 8” value is given as 49.6 (25.0); the “decrease in the interstitial glucose level during CGM (Δ)” value was 1.4 ± 1.8 mmol/L; the “AUC 2hpp value after a test meal - Visit 8” value is 213.61 (52.844).
